The text below walks through data of ChEMBL document CHEMBL3739401, “Synthesis, in vitro, and in vivo evaluation of novel functionalized quaternary ammonium curcuminoids as potential anti-cancer agents” (Bioorg Med Chem Lett, 2015).

Structures are written as SMILES. Calls of active or inactive are those of the source. No cut-off for these calls is given here.

A short description of data set [1]: Aqueous solubility of compound. Format: physicochemical. The settings on record: water.
Data set [2] has as its system MDA-MB-231. The data set is described as follows: Cytotoxicity against human MDA-MB-231 cells by MTT assay. It counts as functional, cell-based. (Tetrazolium dyes change colour on reduction, which living cells bring about.)
A short description of data set [3]: Cytotoxicity against human MIAPaCa2 cells by MTT assay. It counts as functional, cell-based. The settings on record: MIA PaCa-2.
The test system of another data set is 4T1. In words: Cytotoxicity against mouse 4T1 cells by MTT assay. Format: functional, cell-based.
Data set [4] can be described thus: Antitumor activity against human MIAPaCa2 cells xenografted in athymic nude mouse assessed as tumor growth inhibition at 100 mg/kg, ip twice weekly. The conditions noted are these: MIA PaCa-2, ip, read-out: TGI. It counts as functional. Background: In xenograft studies the graft and the host belong to different species.
For data set [5], the system named is MDA-MB-231. In words: Cytotoxicity against human MDA-MB-231 cells upto 50 uM by MTT assay. It counts as functional, cell-based.
Data set [6] has as its system MDA-MB-231. The data set is described as follows: Cytotoxicity against human MDA-MB-231 cells at 20 to 50 uM by MTT assay. Format: functional, cell-based.
Data set [7] relates to Mus musculus. The data set is described as follows: Toxicity in CD-1 mouse assessed as effect on body weight at 50 mg/kg, ip measured after 7 days. Format: organism-based. The settings on record: in vivo, 168 h.
Data set [8] has as its system Mus musculus. The data set is described as follows: Toxicity in CD-1 mouse assessed as effect on body weight at 30 mg/kg, ip bid. It counts as organism-based. The conditions noted are these: in vivo.
Data set [9] can be described thus: Antitumor activity against human MIAPaCa2 cells xenografted in athymic nude mouse assessed as tumor growth inhibition at 40 mg/kg, ip bid. The conditions noted are these: MIA PaCa-2, ip, read-out: TGI. Format: functional.
Data set [10] relates to Mus musculus. In words: Toxicity in CD-1 mouse assessed as survival at 50 mg/kg, ip measured after 7 days. It counts as organism-based. The settings on record: in vivo, 168 h.
Data set [11] has as its system Mus musculus. In words: Toxicity in CD-1 mouse assessed as sign of stress at 30 mg/kg, ip bid. It counts as organism-based. The conditions noted are these: in vivo.
Data set [12] is described as follows: Antitumor activity against human MIAPaCa2 cells xenografted in athymic nude mouse assessed as tumor growth inhibition at 40 mg/kg, ip bid cotreated with gemcitabine (100 mg/kg, ip twice weekly. Format: functional, MIA PaCa-2.
Data set [13] has as its system Mus musculus. In words: Toxicity in CD-1 mouse assessed as sign of stress at 50 mg/kg, ip measured after 7 days. The conditions noted are these: in vivo, 168 h. It counts as organism-based.
Data set [14] relates to Mus musculus. The data set is described as follows: Toxicity in CD-1 mouse assessed as survival at 30 mg/kg, ip bid. Format: organism-based. The conditions noted are these: in vivo.

`C=C(C[N+]1(C)CCN(c2ccc(/C=C/C(=O)/C=C(O)/C=C/c3ccc(N4CC[N+](C)(CC(=C)C(=O)OCCCCCC)CC4)cc3)cc2)CC1)C(=O)OCCCCCC.[Br-].[Br-]`: the solubility in [1] is 1000 µg/mL. Also, the IC50 with MDA-MB-231 [2] came out at 4.2 µM; in [3] it was 4.2 µM; in the data set on 4T1 it was 3.4 µM.

Turning to `C[N+]1(Cc2ccccc2)CCN(c2ccc(/C=C/C(=O)/C=C(O)/C=C/c3ccc(N4CC[N+](C)(Cc5ccccc5)CC4)cc3)cc2)CC1.[Br-].[Br-]`, in [1], the solubility turned out to be 15000 µg/mL. For the same molecule, the IC50 (with MDA-MB-231 [2]; in [3]; in the data set on 4T1) was above 100 µM throughout.

`Nc1ccn([C@@H]2O[C@H](CO)[C@@H](O)C2(F)F)c(=O)n1` [GEMCITABINE]: in data set [4], the inhibition in vivo at 100 mg/kg worked out at 47%.

Regarding `C=CC[N+]1(C)CCN(c2ccc(/C=C/C(=O)/C=C(O)/C=C/c3ccc(N4CC[N+](C)(CC=C)CC4)cc3)cc2)CC1.[Br-].[Br-]`, the concentration in solution in data set [1] (solubility) came to 15000 µg/mL. Also, the half-maximal inhibitory concentration (IC50) (with MDA-MB-231 [2]; in [3]; in the data set on 4T1) was above 100 µM throughout.

Regarding `C=C(C(=O)OC)C(O)c1ccccc1` (configuration not stated), in the data set on MDA-MB-231 [5], the result was inactive.

Take `C=CC[N+]1(C)CCOCC1`: the solubility in data set [1] is above 100000 µg/mL.

`COc1cc(/C=C/C(=O)CC(=O)/C=C/c2ccc(O)c(OC)c2)ccc1O` [CURCUMIN]: the IC50 with MDA-MB-231 [2] was 15 µM; in data set [3], 20 µM; with 4T1, 20 µM.

In turn, `COC(=O)/C(=C\c1ccccc1)C[N+]1(C)CCN(c2ccc(/C=C/C(=O)/C=C(O)/C=C/c3ccc(N4CC[N+](C)(C/C(=C/c5ccccc5)C(=O)OC)CC4)cc3)cc2)CC1.[Br-].[Br-]` had a solubility in [1] of 1000 µg/mL. The values for the half-maximal inhibitory concentration (IC50) (in the data set on MDA-MB-231 [2]; in data set [3]; with 4T1) were 6.2 µM, 4.1 µM and 5 µM, respectively.

As to `C=C(CBr)C(=O)OC`, in the data set on MDA-MB-231 [6], the outcome was Active.

Turning to `C=C(C[N+]1(C)CCN(c2ccc(/C=C/C(=O)/C=C(O)/C=C/c3ccc(N4CC[N+](C)(CC(=C)C(=O)OCCCC)CC4)cc3)cc2)CC1)C(=O)OCCCC.[Br-].[Br-]`, the solubility in data set [1] came to 1000 µg/mL. Also, the concentration for half-maximal inhibition (IC50) in the data set with MDA-MB-231 [2] worked out at 3.7 µM; in data set [3], 4.4 µM; with 4T1, 4.1 µM.

Consider `CN1CCN(c2ccc(/C=C/C(=O)/C=C(O)/C=C/c3ccc(N4CCN(C)CC4)cc3)cc2)CC1`, for which the IC50 (in the data set with MDA-MB-231 [2]; in data set [3]; with 4T1) was above 100 µM throughout.

Take `O=C(/C=C(O)/C=C/c1ccc(N2CCN(CCO)CC2)cc1)/C=C/c1ccc(N2CCN(CCO)CC2)cc1`: the IC50 (with MDA-MB-231 [2]; in data set [3]; in the data set on 4T1) was above 100 µM throughout.

In the case of `C[N+]1(Cc2ccccc2)CCOCC1`, the solubility in data set [1] was above 100000 µg/mL.

On to `COC(=O)/C(=C/c1ccccc1)CBr`, for which, in the data set with MDA-MB-231 [6], the outcome was Active.

Molecule `C=C(C[N+]1(C)CCOCC1)C(=O)OC` showed a solubility in data set [1] above 100000 µg/mL.

`C=C(C[N+]1(C)CCN(c2ccc(/C=C/C(=O)/C=C(O)/C=C/c3ccc(N4CC[N+](C)(CC(=C)C(=O)OC)CC4)cc3)cc2)CC1)C(=O)OC.[Br-].[Br-]` registered a solubility in data set [1] of 1000 µg/mL. Also, the Activity entry with Mus musculus [7], in the data set on Mus musculus [8], in the data set on Mus musculus [10], with Mus musculus [11], in the data set with Mus musculus [13] and in the data set on Mus musculus [14] was “Non-toxic” each time. Besides, the results for the 50% inhibitory concentration (IC50) (with MDA-MB-231 [2]; in data set [3]; with 4T1) were 3.6 µM, 2.7 µM and 4.1 µM, respectively. The inhibition in vivo at 40 mg/kg in data set [9] came out at 42%. In [12], the inhibition of tumour growth (TGI) turned out to be 57%.

For the molecule `C=C(C[N+]1(C)CCN(c2ccc(/C=C/C(=O)/C=C(O)/C=C/c3ccc(N4CC[N+](C)(CC(=C)C(=O)N(C)C)CC4)cc3)cc2)CC1)C(=O)N(C)C.[Br-].[Br-]`, the concentration in solution in data set [1] (solubility) was 1000 µg/mL. Moreover, the IC50 was 15.1 µM in the data set on MDA-MB-231 [2], 14.2 µM in data set [3] and 17.2 µM in the data set on 4T1.

Usually solubility stands for the concentration that dissolves in the medium under given conditions. As usually defined, the IC50 is the concentration that inhibits the measured activity by half. Usually TGI stands for how far tumour growth fell short of that in controls.
